{"source": "paper PMC2818973", "about": "(Journal of medicinal chemistry, 2010)", "conditions": "mouse, in vivo, iv"}
{"compound": "CC(=NNc1ccc(I)cn1)c1ccc2c(c1)C1C=CCC1C(c1cc3c(cc1Br)OCO3)N2", "note": "(stereo not shown) [Compound 9, N-{1-[4-(6-Bromo-benzo[1,3]dioxol-5-yl)-3a,4,5,9b-tetrahydro-3H-cyclopenta[c]quinolin-8-yl]-ethylidene}-N′-(5-iodo-pyridin-2-yl)-hydrazine]", "values": [{"measurement": "metabolism and clearance (in words)", "result": "rapidly metabolized and eliminated via the hepatobiliary system"}]}
